The values that follow come from article PMC2994711, “Homodimerization of the Death-Associated Protein Kinase Catalytic Domain: Development of a New Small Molecule Fluorescent Reporter” (PLoS ONE, 2010).

Common to all, as to type: binding
Experiment [1] deals with T1, mutant protein DAPKdel (ΔS52–S57) (Homo sapiens, UniProt P53355, DEL52-57).
T1 construct: encoding the DAPK catalytic domain (DAPKwt, open reading frame residues 1–285) or the mutant protein DAPKdel (ΔS52–S57); Strep-tag (pASK-IBA3 vector; purified on streptactin resin) (C); made in house; host or cells: Escherichia coli DH5α
T1 sequence (P53355 with tags, fused parts or gaps DEL52-57): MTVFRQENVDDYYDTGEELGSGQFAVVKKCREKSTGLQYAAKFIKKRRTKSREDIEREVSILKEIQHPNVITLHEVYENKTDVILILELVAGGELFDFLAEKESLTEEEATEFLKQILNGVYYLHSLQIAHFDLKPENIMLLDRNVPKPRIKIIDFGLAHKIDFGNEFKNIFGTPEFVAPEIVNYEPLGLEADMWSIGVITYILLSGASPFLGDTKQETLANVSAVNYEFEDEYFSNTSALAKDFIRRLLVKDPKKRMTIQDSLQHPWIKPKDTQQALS
Description: Fluorescence polarization titration of the fluorescent probe with DAPKdel. The procedure: (§1) Fluorescence polarization assays were performed using a Victor 3 apparatus (Perkin-Elmer Waltham, MA). The Lissamine Rhodamine B peptides based library (UMR 7200 CNRS, Strasbourg, France, Patent WO/2006/003330 [14]) was diluted in the assay buffer (50 mM HEPES, 150 mM KCl, 1 mM MgCl2, pH 7.5) to a working concentration of 0.2 µM. 15 µl of these dilutions were transferred to each well of the assay plate (Corning Costar 96-well black polystyrene plates, Model 3686, Corning, Acton, MA). All pipetting in HTS was performed on a Biomek® 2000 (Beckman Coulter, Fullerton, CA). Fluorescent polarization degrees (mFP) were measured at an excitation and emission wavelength of 530 and 610 nm, respectively. 15 µl of the assay buffer with DAPK, at a concentration of 4 µM, were added to each well. For each plate, background correction was performed with blank control wells containing no compounds.
(§2) All titration measurements were performed on a FlexStation 3 (Molecular Devices Union City, CA). The other experimental conditions were described in section “HTS of fluorescent peptides based library”. A twofold dilution cascade of the protein between 200 µM and 0.8 µM was prepared and 10 µl of these solutions were dispatched in 96-well assay plates. 10 µl of the probe solution (0.2 µM of CHPO 187-3-H11-para in assay buffer) were added to the wells and fluorescent polarization was recorded as specified before. Subsequently, 1 µl of concentrated ATP, ADP or substrate peptide (Tocris Bristol, UK) in assay buffer with 0.1 µM of the fluorescent probe was added to the wells, in order to subsequently obtain the following final concentrations of ATP, ADP or substrate peptide: 0.4, 0.8, 1.6, 3.2, 6.3, 12.5, 25, 50, and 1000 µM (the highest concentration was not performed for the peptide).
(§3) Titrations followed the same protocol as described under “ATP, ADP and substrate peptide titrations”, but under buffer conditions analogous to the ones listed under “nano-ESI-MS for the study of non-covalent complexes”. For investigations of the monomeric and the dimeric forms, NH4Ac concentrations were kept constant at 250 mM and 5 mM, respectively. To induce gradual monomerization of DAPK catalytic core, the NH4Ac concentration was stepwise augmented (5, 10, 25, 50, 100 and 250 mM) by the addition of a concentrated NH4Ac stock solution (1 M).
A general note: Fluorescence polarisation rises when a labelled molecule tumbles more slowly, as on binding a larger partner.

For experiment [2], the target named is T2, DAPK catalytic domain (DAPKwt, residues 1–285) (Homo sapiens, UniProt P53355).
T2 construct: encoding the DAPK catalytic domain (DAPKwt, open reading frame residues 1–285); Strep-tag (pASK-IBA3 vector; purified on streptactin resin) (C); made in house; host or cells: Escherichia coli DH5α
T2 sequence (P53355 1-285): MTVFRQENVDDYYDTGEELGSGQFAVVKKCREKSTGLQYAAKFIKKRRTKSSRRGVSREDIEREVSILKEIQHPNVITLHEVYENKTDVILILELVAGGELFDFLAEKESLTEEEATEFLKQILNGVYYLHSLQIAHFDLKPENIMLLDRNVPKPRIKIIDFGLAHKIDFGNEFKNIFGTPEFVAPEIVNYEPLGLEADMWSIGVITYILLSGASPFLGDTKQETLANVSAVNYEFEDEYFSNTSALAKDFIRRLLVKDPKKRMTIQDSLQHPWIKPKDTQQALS
Description: Fluorescence polarization titration of the fluorescent probe with DAPKwt. The procedure: as §1, §2, §3

Experiment [3] concerns the target T3, DAPK catalytic domain (DAPKwt) (Homo sapiens, UniProt P53355).
T3 construct: encoding the DAPK catalytic domain (DAPKwt, open reading frame residues 1–285); Strep-tag (pASK-IBA3 vector; purified on streptactin resin) (C); made in house; host or cells: Escherichia coli DH5α
The experiment can be described thus: Fluorescence polarization titration of fluorophore labeled ATP with DAPKwt. The settings on record: pH 8.8, labeled ATP 0.1 µM. The protocol: as §3
To determine the Kd values of γ-[6-Aminohexyl]-ATP-Atto495 (Jena Bioscience, Jena, Germany) its concentration was set to 0.1 µM, while the rest of the conditions were kept identical to the ones described above. Fluorescence polarization was recorded at an excitation and emission wavelength of 493 nm and 520 nm respectively.

As usually defined, the Kd is a measure of binding affinity in units of concentration.

Like-named read-outs stand apart in the source and are kept apart here.

T3 sequence (P53355 1-285): as above

Regarding `CCN(CC)c1ccc2c(-c3ccc(S(=O)(=O)NCCC(=O)N[C@@H](CCCNC(=N)N)C(=O)N[C@@H](Cc4ccc5ccccc5c4)C(=O)N[C@@H](CCCN)C(N)=O)cc3S(=O)(=O)[O-])c3ccc(=[N+](CC)CC)cc-3oc2c1` [CHPO 187-3-H11-para], the dissociation constant (Kd) amounted to 3.4 µM in experiment [1] (5 mM NH4Ac, pH 8.8); 5.5 µM in experiment [1] (250 mM NH4Ac, pH 8.8); 20 µM in experiment [1] (HEPES buffer pH 7.5, absence of ATP or ADP); 33 µM in experiment [1] (HEPES buffer pH 7.5, presence of ADP, ratio to DAPKdel higher than two); 28 µM in experiment [1] (HEPES buffer pH 7.5, presence of ATP, ratio to DAPKdel higher than two); 16.5 ± 1.2 µM in experiment [2] (5 mM NH4Ac, pH 8.8, conditions favoring the dimer, probe 0.1 µM). Also, the Kd in experiment [2] (50 mM HEPES, 150 mM KCl, 1 mM MgCl2, pH 7.5, absence of ATP or ADP) amounted to 30.9 ± 2.8 µM; in experiment [2] (250 mM NH4Ac, pH 8.8, conditions favoring the monomer, probe 0.1 µM) it was 1.5 ± 0.2 µM; in experiment [2] (HEPES buffer pH 7.5, ATP or ADP to DAPK ratios higher than two (maximal effect)) it was 6.4 ± 0.54 µM.

For γ-[6-Aminohexyl]-ATP-Atto495, the Kd in experiment [3] (5 mM NH4Ac, read-out: Kd of the labeled ATP for the DAPKwt dimer) came out at 3.98 ± 0.22 µM; in experiment [3] (250 mM NH4Ac, read-out: Kd of the labeled ATP for the DAPKwt monomer) it was 0.29 ± 0.011 µM.
